According to the supplement of paper PMC10307832:

What was measured:
Assay in all cases: relative viability (nuclei count vs DMSO), 5 days (fraction); higher = more cells survive
Selisistat + Bortezomib = compound: C1CC(C2=C(C1)C3=C(N2)C=CC(=C3)Cl)C(=O)N [Selisistat] + CC(C)C[C@H](NC(=O)[C@H](Cc1ccccc1)NC(=O)c1cnccn1)B(O)O [Bortezomib] (partner 0.002 µM)
Summary of the method: (§1)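 Lung cancer cell lines, seeded in 1536-well plates, were treated the following day by pin tool with a single drug or with five library-drug doses (not always all listed) in √10 steps on top of a fixed anchor-drug dose. Cells were fixed and nuclei stained in one step after 5 days, and nuclei were counted. Relative viability is the nuclei count for treated wells divided by that for vehicle wells, reported as medians of duplicate plates.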

Selisistat + Lapatinib = compound: C1CC(C2=C(C1)C3=C(N2)C=CC(=C3)Cl)C(=O)N [Selisistat] + CS(=O)(=O)CCNCc1ccc(-c2ccc3ncnc(Nc4ccc(OCc5cccc(F)c5)c(Cl)c4)c3c2)o1 [Lapatinib] (partner 2 µM)
Summary of the method: as §1

Selisistat + Tozasertib = compound: C1CC(C2=C(C1)C3=C(N2)C=CC(=C3)Cl)C(=O)N [Selisistat] + Cc1cc(Nc2cc(N3CCN(C)CC3)nc(Sc3ccc(NC(=O)C4CC4)cc3)n2)n[nH]1 [Tozasertib] (partner 0.1 µM)
Summary of the method: as §1

Selisistat + Olaparib = compound: C1CC(C2=C(C1)C3=C(N2)C=CC(=C3)Cl)C(=O)N [Selisistat] + O=C(c1cc(Cc2n[nH]c(=O)c3ccccc23)ccc1F)N1CCN(C(=O)C2CC2)CC1 [Olaparib] (partner 8 µM)
Summary of the method: as §1

| Cell Line | relative viability (Selisistat + Bortezomib; first compound 0.4 µM) | relative viability (Selisistat + Bortezomib; first compound 1.265 µM) | relative viability (Selisistat + Bortezomib; first compound 4 µM) | relative viability (Selisistat + Bortezomib; first compound 12.65 µM) | relative viability (Selisistat + Bortezomib; first compound 40 µM) | relative viability (Selisistat + Lapatinib; first compound 0.4 µM) | relative viability (Selisistat + Lapatinib; first compound 1.265 µM) | relative viability (Selisistat + Lapatinib; first compound 4 µM) | relative viability (Selisistat + Lapatinib; first compound 12.65 µM) | relative viability (Selisistat + Lapatinib; first compound 40 µM) | relative viability (Selisistat + Tozasertib; first compound 0.4 µM) | relative viability (Selisistat + Tozasertib; first compound 1.265 µM) | relative viability (Selisistat + Tozasertib; first compound 4 µM) | relative viability (Selisistat + Tozasertib; first compound 12.65 µM) | relative viability (Selisistat + Tozasertib; first compound 40 µM) | relative viability (Selisistat + Olaparib; first compound 0.4 µM) | relative viability (Selisistat + Olaparib; first compound 1.265 µM) | relative viability (Selisistat + Olaparib; first compound 4 µM) | relative viability (Selisistat + Olaparib; first compound 12.65 µM) | relative viability (Selisistat + Olaparib; first compound 40 µM) |
| --- | --- | --- | --- | --- | --- | --- | --- | --- | --- | --- | --- | --- | --- | --- | --- | --- | --- | --- | --- | --- |
| 201T | 1.13 | 1.08 | 1.1 | 1.11 | 1.08 | 1.11 | 1.02 | 1.02 | 1.03 | 1.08 | 0.945 | 0.95 | 0.873 | 0.919 | 0.935 | 0.85 | 0.841 | 0.827 | 0.823 | 0.843 |
| HCC-44 | 0.857 | 0.908 | 1.02 | 0.926 | 0.952 | 0.983 | 1.16 | 1.01 | 1.02 | 1.13 | 0.968 | – | – | 0.848 | 0.931 | 0.992 | 1.01 | 1.01 | 1.02 | 1.18 |
| NCI-H596 | 1.01 | 0.105 | 0.817 | 0.947 | 1 | 1.16 | 1.16 | 1.03 | 1.14 | 1.12 | 0.848 | 0.753 | 0.898 | 0.835 | 0.914 | 0.802 | 0.715 | 0.643 | 0.619 | 0.609 |
| H3255 | 0.811 | 0.61 | 0.536 | 0.796 | 0.883 | 0.225 | 0.263 | 0.123 | 0.245 | 0.271 | 0.624 | 0.772 | 0.589 | 0.657 | 0.717 | 0.505 | 0.538 | 0.571 | 0.549 | 0.539 |
| NCI-H647 | 0.95 | 0.987 | – | 0.885 | 1.16 | 1.19 | 1.07 | – | 0.993 | 1.17 | 0.227 | 0.322 | 0.44 | 0.29 | 0.343 | 0.622 | 0.577 | 0.736 | 0.48 | 0.591 |
| NCI-H2023 | 0.978 | 0.961 | 0.849 | 0.95 | 0.928 | 0.703 | 0.812 | 0.537 | 0.859 | 0.758 | 0.417 | 0.34 | 0.286 | 0.263 | 0.307 | 0.555 | 0.443 | 0.523 | 0.413 | 0.435 |
| NCI-H23 | 1.02 | 1.11 | – | 1.1 | 1.08 | 1.16 | 1.06 | – | 1.24 | 1 | 0.377 | 0.384 | 0.319 | 0.33 | 0.295 | 0.234 | 0.353 | – | 0.305 | 0.31 |
| NCI-H520 | 0.525 | 0.495 | 0.619 | 0.648 | 0.738 | 0.811 | 0.898 | 0.814 | 0.751 | 0.766 | 0.387 | 0.472 | 0.488 | 0.415 | 0.451 | 0.413 | 0.317 | 0.364 | 0.344 | 0.319 |
| NCI-H460 | 1.04 | 1.14 | – | 1.02 | 1.12 | 0.909 | 0.952 | – | 0.903 | 0.911 | 0.515 | 0.366 | 0.289 | 0.28 | 0.441 | 0.452 | 0.404 | – | 0.319 | 0.403 |
| EKVX | 1 | 1 | 0.671 | 0.84 | 1.04 | 0.213 | 0.243 | 0.185 | 0.252 | 0.215 | 0.352 | 0.37 | 0.421 | 0.376 | 0.369 | 0.872 | 0.886 | 0.752 | 0.869 | 0.818 |
| EPLC-272H | 0.933 | 0.985 | – | 0.859 | 0.893 | 0.761 | 0.996 | – | 0.955 | 0.915 | 0.265 | 0.231 | – | 0.34 | 0.191 | 0.888 | 0.787 | 0.626 | 0.749 | 0.657 |
| NCI-H2126 | 1.2 | 1.15 | 1.12 | 1.12 | 1.17 | 0.828 | 0.775 | 0.623 | 0.794 | 0.856 | 0.852 | 0.819 | 0.825 | 0.841 | 0.867 | 0.981 | 0.922 | 0.904 | 0.921 | 0.934 |
| LXF-289 | 1.02 | 1.05 | 0.832 | 0.937 | 0.984 | 0.913 | 0.949 | 0.926 | 0.864 | 0.921 | 0.18 | 0.162 | 0.2 | 0.179 | 0.237 | 1.1 | 1.03 | 0.96 | 0.966 | 1.04 |
| NCI-H2009 | 1.01 | 1.06 | 0.583 | 0.921 | 0.997 | 0.903 | 0.961 | 0.454 | 0.826 | 0.987 | 0.743 | 0.734 | 0.765 | 0.694 | 0.744 | 0.763 | 0.683 | 0.838 | 0.743 | 0.672 |
| NCI-H2405 | 0.985 | 0.932 | 0.854 | 0.997 | 0.88 | 1.01 | – | – | 1.03 | 1.09 | 0.784 | 0.752 | 0.719 | 0.763 | 0.722 | 0.899 | 0.909 | – | 0.769 | 0.882 |
| NCI-H1755 | 1.04 | 0.972 | 0.955 | 1.01 | 0.925 | 1.12 | 1.15 | 1.01 | 1.01 | 1.13 | 0.635 | 0.613 | 0.621 | 0.525 | 0.61 | 0.955 | 0.835 | 0.941 | 0.875 | 0.952 |
| HCC-78 | 0.515 | 0.471 | – | 0.489 | 0.514 | 0.811 | 0.891 | 0.448 | 0.589 | 0.658 | 0.486 | 0.418 | 0.398 | 0.407 | 0.424 | 0.893 | 0.795 | 0.82 | 0.833 | 0.88 |
